From PMC7477874, “Targeting L-Proline Uptake as New Strategy for Anti-chagas Drug Development” (Frontiers in Chemistry, 2020)
Values joined by “and” are separate entries in the source; they are usually repeats but may differ in a detail not shown here. Equal entries are not always repeated. “Also recorded” adds a separate entry of the source. Where two headings read alike, the source gives them in different places.

Experiments:
[1] = tested on: T. cruzi epimastigotes (CL strain clone 14); settings: cited from earlier work
[2] = tested on: T. cruzi epimastigotes (CL strain clone 14); test: Growth inhibition assay on T. cruzi epimastigotes; assay type: cell-based, Trypanosoma cruzi; settings: for Effect on parasite growth at the maximum concentration: 100 μM; for Times more active than T4C: T. cruzi epimastigotes, IC50 relative to T4C (890 μM)
Experimental: T. cruzi CL strain clone 14 epimastigotes (Brener and […], [1965]) were maintained in the exponential growth phase by subculturing every 48 h in Liver Infusion Tryptose (LIT) medium supplemented with 10% FCS (Vitrocell, Campinas, São Paulo, Brazil) at 28 °C. T. cruzi epimastigotes in the exponential growth phase (5.0-6.0 x 10^7 cells mL^-1) were cultured in fresh LIT medium. The cells were treated with different concentrations of drugs or not treated (negative control). A combination of Rotenone (60 μM) and Antimycin (0.5 μM) was used as a positive control for inhibition as previously described. (Magdaleno et al., [2009]) The cells (2.5 x 10^6 mL^-1) were transferred to 96-well culture plates and incubated at 28 °C. Cell proliferation was quantified by reading the optical density (OD) at 620 nm for 8 days. The OD was converted to cell density values (cells per mL) using a linear regression equation previously obtained under the same conditions. The concentration of compounds that inhibited 50% of parasite proliferation (IC50) was determined during the exponential growth phase (4 days) by fitting the data to a typical sigmoidal dose-response curve using OriginPro8. The compounds were evaluated in quadruplicate in each experiment. The results shown here correspond to three independent experiments. As a cell growth inhibition control, growth curves in which […] were added to the culture medium were run in parallel for all experiments.

Vero cells = test: Cytotoxicity assay on Vero cells (MTT); assay type: cell-based, African green monkey; settings: for IC50: Chlorocebus sabaeus, Vero, 48 h, MTT
Experimental: To evaluate the analogs toxicity, Vero cells previously plated on 96 multi-well plate in DMEM 2% FBS and incubated for 48 h at 37 °C in a humid atmosphere containing 5% CO2, were incubated with […] of DMEM 2% FBS supplemented with each analog for 48 h. The concentration (μM) was different with each analog:
The viability of cells was measured by MTT dye (3-(4,5-Dimethylthiazol-2-yl)-2,5-diphenyltratazolium bromide, Sigma-Aldrich) colorimetric method. Benznidazole and DMSO were used as positive and negative controls, respectively. Data are expressed as means ± SD of the results of three independent assays of each condition.

L-proline transporter = test: L-Proline transport competition assay in T. cruzi epimastigotes; assay type: cell-based, Trypanosoma cruzi; settings: 3.1 mM analog; for Proline uptake inhibition (in words): 0.31 mM L-proline; for % of Proline inh.: 0.31 mM L-proline (Km), 30 s
Experimental: Parasites in exponential growth phase were washed three times by centrifugation and resuspended in phosphate buffered saline (PBS), pH 7.4. Cells were counted in a Neubauer chamber, adjusted with the same buffer to a final density of 200 × 10^6 cells/mL and distributed in aliquots of 100 μL (containing 20 × 10^6 cells each). Transport assays were initiated by the addition to the assay tubes of 100 μL of the desired dilution of L-proline in PBS in the presence of […] of L-[3H] proline. Unless otherwise specified, V0 was measured at 28 °C for 30 s by incorporation of 0.75 and 3 mM L-proline traced with 1 μCi of U-^14C-L-Pro (Perkin Elmer). In all cases, proline transport was stopped by addition of […] of cold 50 mM proline in PBS (pH 7.4), and rapid washing by centrifugation at 10,000x g for 2 min. Background values in each experiment were measured by simultaneous addition of radiolabeled L-proline and stop solution as previously described (Silber et al., [2002]). For the competition assays, the transport experiments were performed as described above using the L-Pro concentration corresponding to the Km (0.31 mM). Those conditions were chosen considering an inhibitory activity by structurally related compounds should be competitive, and so, should be evidenced by a change in the […] at L-Pro concentrations close to the Km. Non-competitive inhibitors, if any, should diminish Vmax, which is measured at 10 x Km L-Pro (3.1 mM) (Silber et al., [2002]). […] The analogs were assayed on T. cruzi epimastigotes incubated with proline at the transporter Km concentration (0.31 mM), and the analogs were assayed at concentration 10-fold higher (3.1 mM). […] The oleyl derivate (3k), with an unsaturated fatty tail, has a similar IC50 on T. cruzi epimastigotes compared to the cetyl analog (3j) showing no inhibition in terms of proline uptake (Table 2).  Figure 4 Proline uptake assay. Pro control = Proline control, Pro comp = L-Proline as competitor. 3i-k and 3n = proline level incubated (*p < 0.05) with selected analogs. Pro control (0.31 mM L-proline, [^3H] proline, PBS). Pro Comp (3.1 mM L-proline, [^3H] proline, PBS). Compounds 3i-k and 3n (0.31 mM L-proline, 3.1 mM analog 3x, [^3H] proline, PBS). Stop solution: 50 mM L-proline added after 30 s.

[3] = Solubility observed in the Vero cytotoxicity assay; assay type: physicochemical; settings: at 50 μM, Vero cytotoxicity assay medium
Experimental: Vero cells are well established model to test cytotoxicity in vitro because it is an aneuploid and a continuous cell linage. […] Compound 3j was not soluble at 50 μM which made not possible to calculate its IC50.

[4] = Trypanosoma cruzi, 96 h, epimastigotes CL14, IC50 at 4 days, means (SD) from three independent experiments, max. concentration 100 μM, read-out: T. cruzi IC50
[5] = epimastigotes CL14, IC50 at 4 days, means (SD) from three independent experiments, max. concentration 100 μM, read-out: T. cruzi IC50
[6] = Trypanosoma cruzi, epimastigotes, unit given as mM, read-out: T. cruzi epimastigotes IC50 (as restated in the discussion)

O=C(Cn1ccnc1[N+](=O)[O-])NCc1ccccc1 [Benznidazole]
IC50 ([1]; epimastigotes, read-out: T. cruzi IC50): 7 µM

CCOC(=O)CCCCn1cc(CN2CCC[C@H]2C(=O)OC)nn1 [Compound 3b, Methyl ((1-(5-Ethoxy-5-Oxopentyl)-1H-1,2,3-Triazol-4-yl)Methyl)-L-Prolinate]
IC50 [2, 4]: > 0.1 mM | Effect on parasite growth at the maximum concentration ([2]; epimastigotes): did not affect the parasite growth; also recorded: inactive

CCCCCCCCCCn1cc(CN2CCC[C@H]2C(=O)OC)nn1 [Compound 3i, Methyl ((1-Decyl-1H-1,2,3-Triazol-4-yl)Methyl)-L-Prolinate]
Selectivity index (IC50 Vero cells / IC50 T. cruzi epimastigotes) (Vero cells): 1.13 | IC50 (Vero cells): 43 µM | Proline uptake inhibition (in words) (L-proline transporter): markedly reduction of the internalized proline | Times more active than T4C [2]: 23 | IC50 [2, 4]: < 0.04 mM | IC50 [2, 5]: < 0.05 mM and 0.038 mM and 0.039 mM

COC(=O)[C@@H]1CCCN1Cc1cn(C/C=C(\C)CCCC(C)CCCC(C)CCCC(C)C)nn1 (stereo partly drawn) [Compound 3p, Methyl ((1-((E)-3,7,11,15-Tetramethylhexadec-2-en-1-yl)-1H-1,2,3-Triazol-4-yl)Methyl) -L-Prolinate]
IC50 [2, 4]: 0.0483 mM | IC50 [2, 5]: 0.0697 ± 0.00217 mM

CCCCCCCC/C=C\CCCCCCCCn1cc(CN2CCC[C@H]2C(=O)OC)nn1 [Compound 3k, Methyl (Z)-((1-(Octadec-9-en-1-yl)-1H-1,2,3-Triazol-4-yl)Methyl)-L-Prolinate]
Selectivity index (IC50 Vero cells / IC50 T. cruzi epimastigotes) (Vero cells): 0.43 | IC50 (Vero cells): 17 µM | % of Proline inh. (L-proline transporter): 0% | Proline uptake inhibition (in words) (L-proline transporter): no inhibition | Times more active than T4C [2]: 22 | IC50 [2, 4]: < 0.04 mM | IC50 [2, 5]: < 0.05 mM and 0.0351 mM

COC(=O)[C@@H]1CCCN1Cc1cn(C2CCCCC2)nn1 [Compound 3d, Methyl ((1-Cyclohexyl-1H-1,2,3-Triazol-4-yl)Methyl)-L-Prolinate]
IC50 [2, 4]: > 0.1 mM | Effect on parasite growth at the maximum concentration ([2]; epimastigotes): did not affect the parasite growth; also recorded: inactive

COC(=O)[C@@H]1CCCN1Cc1cn(CC=C(C)CCCC(C)CCCC(C)CCCC(C)C)nn1 (stereo partly drawn) [Compound 3q, Methyl ((1-(3,7,11,15-Tetramethylhexadec-2-en-1-yl)-1H-1,2,3-Triazol-4-yl)Methyl)-L-Prolinate]
IC50 [2, 4]: 0.0483 ± 0.00581 mM

CCCCCCCCCCCCCCCCn1cc(CN2CCC[C@H]2C(=O)OC)nn1 [Compound 3j, Methyl ((1-Hexadecyl-1H-1,2,3-Triazol-4-yl)Methyl)-L-Prolinate]
Solubility [3]: not soluble | % of Proline inh. (L-proline transporter): 20% and 18^# % | melting point: 60 to 60.9 °C | Times more active than T4C [2]: 36 | IC50 [2, 6]: 0.0245 mM

CCCCCCCCCCCCCCCCCCCCn1cc(CN2CCC[C@H]2C(=O)OC)nn1 [Compound 3l, Methyl ((1-Icosyl-1H-1,2,3-Triazol-4-yl)Methyl)-L-Prolinate]
melting point: 72.7 to 73.7 °C | IC50 [2, 4]: 0.1 mM

COC(=O)[C@@H]1CCCN1Cc1cn(Cc2ccc3ccccc3c2)nn1 [Compound 3g, Methyl ((1-(Naphthalen-2-Ylmethyl)-1H-1,2,3-Triazol-4-yl)Methyl)-L-Prolinate]
melting point: 64 to 64.9 °C | IC50 [2, 4]: 0.1 mM

COC(=O)[C@@H]1CCCN1Cc1cn(C/C=C(\C)CC/C=C(/C)CCC=C(C)C)nn1 [Compound 3o, Methyl ((1-((2E,6Z)-3,7,11-Trimethyldodeca-2,6,10-Trien-1-yl)-1H-1,2,3-Triazol-4-yl)Methyl)-L-Prolinate]
IC50 [2, 4]: 0.0586 ± 0.00137 mM | IC50 [2, 6]: 0.0596 mM

O=C(O)[C@@H]1CSCN1 [Compound T4C, L-thiazolidine-4-carboxylic acid]
IC50 ([1]; ref Magdaleno et al., 2009, read-out: IC50 on T. cruzi epimastigotes): 890 µM

COC(=O)[C@@H]1CCCN1Cc1cn(CCCc2ccccc2)nn1 [Compound 3e, Methyl ((1-(3-Phenylpropyl)-1H-1,2,3-Triazol-4-yl)Methyl)-L-Prolinate]
IC50 [2, 4]: > 0.1 mM | Effect on parasite growth at the maximum concentration ([2]; epimastigotes): did not affect the parasite growth; also recorded: inactive

COC(=O)[C@@H]1CCCN1Cc1cn(CC=Cc2ccccc2)nn1 [Compound 3f, Methyl ((1-Cinnamyl-1H-1,2,3-Triazol-4-yl)Methyl)-L-Prolinate]
IC50 [2, 4]: > 0.1 mM | Effect on parasite growth at the maximum concentration ([2]; epimastigotes): did not affect the parasite growth; also recorded: inactive

COC(=O)[C@@H]1CCCN1Cc1cn(C/C=C(\C)CC/C=C(\C)CCC=C(C)C)nn1 [Compound 3n, Methyl ((1-((2E,6E)-3,7,11-Trimethyldodeca-2,6,10-Trien-1-yl)-1H-1,2,3-Triazol-4-yl)Methyl)-L-Prolinate]
Selectivity index (IC50 Vero cells / IC50 T. cruzi epimastigotes) (Vero cells): 0.25 | IC50 (Vero cells): 14 µM | Proline uptake inhibition (in words) (L-proline transporter): complete inhibition; also recorded: markedly reduction of the internalized proline | Times more active than T4C [2]: 18 | IC50 [2, 4]: < 0.05 mM | IC50 [2, 5]: 0.0483 ± 0.00129 mM

COC(=O)[C@@H]1CCCN1Cc1cn(CC=C(C)CCC=C(C)C)nn1 [Compound 3m, Methyl ((1-(3,7-Dimethylocta-2,6-Dien-1-yl)-1H-1,2,3-Triazol-4-yl)Methyl)-L-Prolinate]
IC50 [2, 4]: > 0.1 mM | Effect on parasite growth at the maximum concentration ([2]; epimastigotes): did not affect the parasite growth; also recorded: inactive

CCOC(=O)Cn1cc(CN2CCC[C@H]2C(=O)OC)nn1 [Compound 3a, Methyl ((1-(2-Ethoxy-2-Oxoethyl)-1H-1,2,3-Triazol-4-yl)Methyl)-L-Prolinate]
IC50 [2, 4]: > 0.1 mM | Effect on parasite growth at the maximum concentration ([2]; epimastigotes): did not affect the parasite growth; also recorded: inactive

CCCCCCCCn1cc(CN2CCC[C@H]2C(=O)OC)nn1 [Compound 3h, Methyl ((1-Octyl-1H-1,2,3-Triazol-4-yl)Methyl)-L-Prolinate]
IC50 [2, 4]: > 0.1 mM | Effect on parasite growth at the maximum concentration ([2]; epimastigotes): did not affect the parasite growth; also recorded: inactive

COC(=O)[C@@H]1CCCN1Cc1cn(Cc2ccccc2)nn1 [Compound 3c, Methyl ((1-Benzyl-1H-1,2,3-Triazol-4-yl)Methyl)-L-Prolinate]
IC50 [2, 4]: > 0.1 mM | Effect on parasite growth at the maximum concentration ([2]; epimastigotes): did not affect the parasite growth; also recorded: inactive
